Reference: ChEMBL document CHEMBL3431459, “Roche carnitine palmitoyltransferase modulator screening data (supplementary data associated with the publication CHEMBL2216752)”
Converted amounts (≈) assume the structure as drawn.

How the values were obtained:
[1] = SUPPLEMENTARY: Lyophilisation Solubility Assay (LYSA); format: physicochemical; conditions: read-out: Kinetic_solubility
[2] = target: T1, Carnitine O-palmitoyltransferase 1, liver isoform (Rattus norvegicus, UniProt P32198); experiment: (§1) SUPPLEMENTARY: Inhibition of Carnitine palmitoyltransferase 1, liver isoform
T1 sequence (P32198 whole entry): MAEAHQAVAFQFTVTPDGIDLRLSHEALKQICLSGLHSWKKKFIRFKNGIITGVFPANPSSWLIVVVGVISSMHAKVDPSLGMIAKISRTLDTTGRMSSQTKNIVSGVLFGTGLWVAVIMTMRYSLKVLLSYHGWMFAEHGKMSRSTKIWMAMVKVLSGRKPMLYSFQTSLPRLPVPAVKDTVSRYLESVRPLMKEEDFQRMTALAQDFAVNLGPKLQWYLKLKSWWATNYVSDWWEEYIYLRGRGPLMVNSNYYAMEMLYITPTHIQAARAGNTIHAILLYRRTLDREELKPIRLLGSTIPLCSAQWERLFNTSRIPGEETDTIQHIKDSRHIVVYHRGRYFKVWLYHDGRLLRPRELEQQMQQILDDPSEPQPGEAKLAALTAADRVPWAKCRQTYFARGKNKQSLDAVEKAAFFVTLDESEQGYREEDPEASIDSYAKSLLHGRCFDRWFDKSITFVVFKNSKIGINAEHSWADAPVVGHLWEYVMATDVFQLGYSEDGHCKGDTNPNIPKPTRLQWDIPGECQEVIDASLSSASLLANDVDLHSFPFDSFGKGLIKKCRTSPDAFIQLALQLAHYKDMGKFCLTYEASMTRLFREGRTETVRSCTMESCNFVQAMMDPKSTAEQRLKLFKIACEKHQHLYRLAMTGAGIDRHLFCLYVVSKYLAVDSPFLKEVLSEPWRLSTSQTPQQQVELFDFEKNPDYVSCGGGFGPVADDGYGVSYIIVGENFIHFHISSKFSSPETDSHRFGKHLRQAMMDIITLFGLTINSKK

[3] = target: T2, Carnitine O-palmitoyltransferase 1, liver isoform (Homo sapiens, UniProt P50416); experiment: as §1
T2 sequence (P50416 whole entry): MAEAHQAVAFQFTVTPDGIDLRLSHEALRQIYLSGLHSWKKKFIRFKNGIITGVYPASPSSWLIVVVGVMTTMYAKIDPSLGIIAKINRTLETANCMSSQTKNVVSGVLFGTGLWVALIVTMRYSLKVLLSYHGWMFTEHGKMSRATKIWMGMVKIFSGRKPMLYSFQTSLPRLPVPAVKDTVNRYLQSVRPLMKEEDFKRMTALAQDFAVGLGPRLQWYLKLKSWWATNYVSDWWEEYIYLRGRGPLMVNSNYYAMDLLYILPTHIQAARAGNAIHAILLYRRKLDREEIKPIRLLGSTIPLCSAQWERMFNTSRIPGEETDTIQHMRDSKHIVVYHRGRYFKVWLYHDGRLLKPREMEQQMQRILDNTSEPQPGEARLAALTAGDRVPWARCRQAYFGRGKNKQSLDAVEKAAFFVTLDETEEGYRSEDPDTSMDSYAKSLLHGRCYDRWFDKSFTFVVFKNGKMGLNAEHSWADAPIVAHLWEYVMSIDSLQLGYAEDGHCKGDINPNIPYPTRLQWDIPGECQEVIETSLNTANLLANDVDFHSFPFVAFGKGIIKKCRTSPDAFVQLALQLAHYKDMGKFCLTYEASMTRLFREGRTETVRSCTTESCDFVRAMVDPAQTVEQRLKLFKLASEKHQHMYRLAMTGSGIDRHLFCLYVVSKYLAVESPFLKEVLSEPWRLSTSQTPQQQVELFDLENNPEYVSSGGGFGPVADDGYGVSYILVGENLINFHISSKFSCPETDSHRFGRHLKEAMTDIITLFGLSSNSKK

[4] = SUPPLEMENTARY: PAMPA permeability assay; format: physicochemical; conditions: read-out: Permeability
[5] = SUPPLEMENTARY: Lipophilicity (log D) Determination by high-throughput shake-flask; format: physicochemical; conditions: octanol/water
[6] = target: T3, Carnitine O-palmitoyltransferase 1, muscle isoform (Homo sapiens, UniProt Q92523); experiment: SUPPLEMENTARY: Inhibition of Carnitine palmitoyltransferase 1, muscle isoform; set-up: species or system Muscle tissue
T3 sequence (Q92523 whole entry): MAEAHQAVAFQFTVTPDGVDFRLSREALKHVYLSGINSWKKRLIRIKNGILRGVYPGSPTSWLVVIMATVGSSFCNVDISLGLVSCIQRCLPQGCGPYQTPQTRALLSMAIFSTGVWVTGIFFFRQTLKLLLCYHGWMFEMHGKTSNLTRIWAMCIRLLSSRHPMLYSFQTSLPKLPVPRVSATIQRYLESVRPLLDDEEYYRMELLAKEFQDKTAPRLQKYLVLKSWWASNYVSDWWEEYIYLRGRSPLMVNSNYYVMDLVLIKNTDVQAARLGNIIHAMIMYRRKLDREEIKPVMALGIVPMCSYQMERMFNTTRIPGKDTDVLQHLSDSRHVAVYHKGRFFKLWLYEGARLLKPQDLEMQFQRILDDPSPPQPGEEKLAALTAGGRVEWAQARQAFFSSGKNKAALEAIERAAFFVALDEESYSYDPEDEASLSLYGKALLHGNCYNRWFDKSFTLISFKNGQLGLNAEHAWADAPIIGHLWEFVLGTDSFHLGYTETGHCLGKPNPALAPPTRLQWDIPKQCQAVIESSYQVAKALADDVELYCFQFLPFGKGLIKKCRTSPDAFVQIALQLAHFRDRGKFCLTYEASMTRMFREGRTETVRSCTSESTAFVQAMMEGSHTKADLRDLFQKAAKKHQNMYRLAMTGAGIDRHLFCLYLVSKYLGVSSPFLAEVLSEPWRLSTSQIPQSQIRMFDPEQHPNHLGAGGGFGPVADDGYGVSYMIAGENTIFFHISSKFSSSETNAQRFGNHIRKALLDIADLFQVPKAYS

[7] = target: T4, Carnitine O-palmitoyltransferase 2, mitochondrial (Homo sapiens, UniProt P23786); experiment: (§2) SUPPLEMENTARY: Inhibition of Carnitine palmitoyltransferase 2
T4 sequence (P23786 whole entry): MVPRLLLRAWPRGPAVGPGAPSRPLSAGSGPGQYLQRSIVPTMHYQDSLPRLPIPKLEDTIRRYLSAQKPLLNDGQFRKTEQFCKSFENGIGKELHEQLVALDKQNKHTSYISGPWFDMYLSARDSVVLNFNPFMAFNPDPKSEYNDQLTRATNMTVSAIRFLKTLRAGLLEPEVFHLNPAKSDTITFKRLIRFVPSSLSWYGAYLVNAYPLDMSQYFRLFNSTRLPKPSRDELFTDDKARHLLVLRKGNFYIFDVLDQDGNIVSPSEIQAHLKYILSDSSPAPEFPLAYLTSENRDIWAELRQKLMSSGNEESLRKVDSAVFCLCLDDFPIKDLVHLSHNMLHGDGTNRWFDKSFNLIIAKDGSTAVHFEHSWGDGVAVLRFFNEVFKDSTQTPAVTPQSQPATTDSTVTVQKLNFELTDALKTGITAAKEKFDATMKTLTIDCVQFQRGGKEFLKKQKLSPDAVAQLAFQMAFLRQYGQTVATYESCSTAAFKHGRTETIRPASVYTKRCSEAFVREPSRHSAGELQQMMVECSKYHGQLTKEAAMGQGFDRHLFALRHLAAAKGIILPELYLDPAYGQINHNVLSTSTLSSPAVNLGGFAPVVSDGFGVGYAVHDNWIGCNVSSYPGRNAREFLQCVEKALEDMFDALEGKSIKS

[8] = target: T5, Carnitine O-palmitoyltransferase 2, mitochondrial (Rattus norvegicus, UniProt P18886); experiment: as §2
T5 sequence (P18886 whole entry): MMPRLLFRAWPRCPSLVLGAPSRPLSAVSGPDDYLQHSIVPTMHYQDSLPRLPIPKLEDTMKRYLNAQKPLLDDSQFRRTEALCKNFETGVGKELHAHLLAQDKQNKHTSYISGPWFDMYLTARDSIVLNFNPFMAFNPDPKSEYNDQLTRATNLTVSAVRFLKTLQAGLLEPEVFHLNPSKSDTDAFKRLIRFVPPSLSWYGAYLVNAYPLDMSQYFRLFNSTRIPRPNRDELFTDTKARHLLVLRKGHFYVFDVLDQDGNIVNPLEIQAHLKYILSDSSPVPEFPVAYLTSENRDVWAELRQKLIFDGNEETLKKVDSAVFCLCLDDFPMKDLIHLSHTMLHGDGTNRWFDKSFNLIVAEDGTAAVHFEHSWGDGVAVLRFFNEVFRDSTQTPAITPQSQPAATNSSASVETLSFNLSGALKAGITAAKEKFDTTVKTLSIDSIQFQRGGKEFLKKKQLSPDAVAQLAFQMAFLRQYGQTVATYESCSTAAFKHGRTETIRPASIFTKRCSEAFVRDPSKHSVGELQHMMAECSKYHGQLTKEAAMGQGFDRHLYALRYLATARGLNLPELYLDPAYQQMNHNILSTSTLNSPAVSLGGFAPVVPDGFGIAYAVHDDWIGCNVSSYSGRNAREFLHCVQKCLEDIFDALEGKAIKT

Structure (SMILES) | solubility kinetic [1] [µg/mL] | IC50 [2] [nM] | IC50 [3] [nM] | Papp [4] [×10⁻⁶ cm/s] | logD [5] | IC50 [6] [nM] | IC50 [7] [nM] | IC50 [8] [nM]
O=C([C@H]1CCCCN1C(=O)COc1ccccc1)N1Cc2cc(Cl)c(N3CCOCC3)cc2C1 | 36 (≈ 74.4 µM) | 121 | 145 | 5.91 | 3.24 | > 100000 | 388 | 496
Cc1cc(-c2nc([C@H]3CCCCN3C(=O)COc3ccccc3)no2)[nH]n1 | 52 (≈ 142 µM) | 146 | 188 | 6.09 | 2.57 | 62700 | > 100000 | > 100000
CS(=O)(=O)NCc1cccc(-c2nc([C@H]3CCCCN3C(=O)COc3ccccc3)no2)c1 | 94 (≈ 200 µM) | 160 | 65.4 | 1.77 | 2.44 | > 100000 | 22800 | > 100000
O=C(O)c1cncc(-c2noc([C@H]3CCCCN3C(=O)COc3ccccc3)n2)c1 | 397 (≈ 972 µM) | 4510 | 226 | 0.07 | -1.07 | > 100000 | 96300 | > 100000
NC(=O)c1cccc(-c2noc([C@H]3CCCCN3C(=O)COc3ccccc3)n2)c1 | 42 (≈ 103 µM) | 156 | 40.8 | 2.55 | 2.57 | 72300 | 16700 | 45700
CC(=O)Nc1cc(-c2n[nH]c([C@H]3CCCCN3C(=O)COc3ccccc3)n2)ccc1F | 121 (≈ 277 µM) | 375 | 79.5 | 2.67 | 2.43 | > 100000 | 45900 | > 100000
CC(=O)Nc1cccc(-c2n[nH]c([C@H]3CCCCN3C(=O)COc3ccccc3)n2)c1 | 136 (≈ 324 µM) | 340 | 53.7 | 2.88 | 2.61 | > 100000 | 98300 | > 100000
O=C(COc1ccccc1)N1CCNC[C@@H]1c1nc(-c2ccc3[nH]cnc3c2)no1 | 367 (≈ 907 µM) | 9640 | 132 | 1.53 | 1.63 | > 100000 | > 100000 | > 100000
O=C(COc1ccccc1)N1CCCC[C@@H]1c1noc(-c2cc(Cl)nnc2O)n1 | > 509 | 630 | 122 | 6.21 | 1.84 | 72900 | 23000 | > 100000
O=C(O)c1ccc(NC(=O)c2cccc(S(=O)(=O)N3CCCc4ccc(C(F)(F)F)cc43)c2)cc1 | 44 (≈ 87.2 µM) | 122 | 34.2 | 3.63 | 1.93 | 4930 | 5730 | 2920

The next compounds have a lower IC50 [2] than those just listed; values first:

solubility kinetic [1] [µg/mL] | IC50 [2] [nM] | IC50 [3] [nM] | Papp [4] [×10⁻⁶ cm/s] | logD [5] | IC50 [6] [nM] | IC50 [7] [nM] | IC50 [8] [nM] | Structure (SMILES)
70 (≈ 150 µM) | 106 | 229 | 8.31 | 2.01 | > 100000 | 540 | 2010 | O=C([C@H]1CCCCN1C(=O)COc1ccccc1)N1Cc2cc(F)c(N3CCOCC3)cc2C1
14 (≈ 30.3 µM) | 103 | 50.6 | 3.82 | 2.62 | > 100000 | 50600 | > 100000 | O=C1CN(c2cccc(-c3noc([C@H]4CCCCN4C(=O)COc4ccccc4)n3)c2)C(=O)N1
195 (≈ 372 µM) | 65.4 | 80.1 | 2.77 | 0.58 | 844 | 40900 | > 100000 | COc1ccc(Cl)cc1S(=O)(=O)N1COc2c(C)cc(C(=O)Nc3nc(CC(=O)O)cs3)cc21
440 (≈ 900 µM) | 54.2 | 53.7 | 2.38 | 0.47 | 46800 | > 100000 | > 100000 | COc1ccc(Cl)cc1S(=O)(=O)Nc1cc(C(=O)Nc2ccccc2)ccc1CCC(=O)O
< 1 | 10.1 | 45 | 0.06 | 3.62 | > 100000 | > 100000 | > 100000 | COc1ccc(Cl)cc1S(=O)(=O)c1cn(CCCO)c2ccc(C(=O)Nc3ccccc3)cc12
